Test results: article PMC8868297, “Stapling of Peptides Potentiates the Antibiotic Treatment of Acinetobacter baumannii In Vivo” (Antibiotics, 2022)
Bridge positions count the residues as written; N and C are the ends. Square brackets hold non-standard residues; d marks the D form. Ends that are not written are not given here. Peptide text beside a SMILES is read from it. R8 = C=CCCCCCC[C@@](C)(N)C(=O)O; S5 = C=CCCC[C@](C)(N)C(=O)O

Experiments:
A. baumannii 1757 = assay: MIC / checkerboard synergy assay (also with added LPS); assay type: cell-based, Acinetobacter baumannii; settings: mean ± SD; for MIC (compound alone): LB broth, MIC = 90% of growth prevented, OD600 over 12 h; for MIC, + Rd-LPS (F583): LB medium with soluble deep rough LPS 15 µg/ml; for MIC, + Sm-LPS (055:B5): LB medium with soluble smooth LPS 15 µg/ml; for MIC, No supplement: LB medium without supplement (Table S4)
Experimental: (§1) Minimum inhibitory concentrations of the peptides and antibiotics were determined according to the protocol described by Wiegand et al.. Briefly, two-fold dilution series of cationic peptides in 50 µL volume of LB broth containing 2% DMSO were made in polypropylene 96-well microtiter plates (Ratiolab, L6018123, Dreieich, Germany). The optical density at 600 nm (OD600) of growing bacterial cultures was followed, and at mid-log-phase (OD600 ~0.4–0.5) cultures were diluted to OD600 0.02 and 50 µL was added to the wells, resulting in a total volume of 100 µl, an OD600 of ~0.01 and a DMSO concentration of 1%. An OD600 of ~0.01 accounted for approximately 3 × 10^8 colony forming units per mL (CFU/mL) for A. baumannii, 1 × 10^7 CFU/mL for E. coli and 5 × 10^7 CFU/mL for K. pneumoniae as determined by plate counting.
(§2) In a similar manner, two-fold dilution series of antibiotics were made in polystyrene microtiter plates (Costar, REF3779, Corning NY, United States) in 70 µL volume of LB broth. Then, 50 µL of the antibiotic series was transferred to the peptide containing polypropylene plate, resulting in a checkerboard titration of a peptide on the vertical axis and an antibiotic on the horizontal axis. To some checkerboard assays 15 µg/mL isolated smooth (sm) LPS (from E. coli O55:B5, Sigma-Aldrich, L2880), rough (Ra) LPS (from E. coli EH100, Sigma-Aldrich, L9641) or deep rough (Rd) LPS (from E. coli F583, Sigma-Aldrich, L6893) LPS was added to the LB broth. Mid-log phase cultures were diluted to OD600 0.1 and 10 µL culture was added to each well of the microtiter plate, resulting in a total volume of 110 µL and an OD600 of ~0.01 (~3 × 10^8 CFU/mL), and the OD600 was measured every 15 min for 12 h using the microplate reader. First, the MIC values of the antibiotics alone and the MIC values of the peptides alone were determined as described previously. Similarly, the MIC values of the antibiotics in combination with the different peptides and the MIC values of the peptides in combination with the antibiotics were determined (the fractional inhibitory concentrations (FIC)). […] An FICindex between 0.5 and 1 was considered to be an additive effect.

zebrafish larvae = assay: Toxicity in zebrafish larvae (survival after caudal vein injection); settings: survival of uninfected larvae vs vehicle (50% DMSO), five days
Experimental: Transparent Casper zebrafish (Danio rerio) larvae were infected and treated according to protocols described by Van der Sar et al. and Bernard et al. [43, 44]. In short, zebrafish larvae collected from a laboratory-breeding colony kept at 24 °C and a 12:12 h dark/light regime. Larvae were selected based on morphology according to hours post fertilization (hpf) and kept at 28 °C. All protocols followed the international guidelines on the protection of animals used for scientific purposes specified by the EU Directive 2010/63/EU, which allows zebrafish larvae to be used up to the moment of free-living (5–7 dpf). Larvae were dechorionated at 28 hpf and anaesthetized in 0.2% tricaine methanesulfonate (MS222, Fluka A-5040). Larvae were individually infected with 1 nL, containing approximately 100–150 CFU (1–1.5 CFU/mL), of Gram-negative bacteria via microinjection of the caudal vein as described previously [33]. One hour post infection, larvae were treated with cationic (stapled) peptides, antibiotics or a combination of the two via another microinjection of 1 nL in the caudal vein. To correct dilution of the treatment upon injection in the vein (1 nL in 250 nL zebrafish larvae volume), treatments were diluted in 0.1% phenol red (Sigma-Aldrich, p-0290) in phosphate buffered saline (PBS) to 250 times the concentration as tested in vitro. Zebrafish larvae were kept at 30 °C throughout the experiment and survival of the larvae, based on heartbeat, was determined every 24 h for 5 days.

circular dichroism = settings: 5 mM sodium phosphate; pH 7.5; 20 °C; 7.5 uM
sheep red blood cells = settings: sheep RBCs in DMEM, 1 h, 32 °C, OD405; for hemolysis at 50 µM: relative to 1% Triton-X100, negative control polymyxin B nonapeptide
Experimental: Defibrinated sheep blood was purchased from BioTrading (LOT 21118SG66, Mijdrecht, The Netherlands) and kept at 4 °C. As previously described by Phan et al., red blood cells (RBCs) were pelleted by centrifugation at 600× g for 7 min at 4 °C and gently resuspended in phenol red-free Dulbecco’s Modified Eagle Medium (DMEM, Gibco 21063-029, ThermoFisher Scientific, Waltham MA, United States). This was repeated five times until the supernatant appeared colorless. In the meantime, 10-fold dilution series of the peptides at 50 μM, 5 μM and 0.5 μM in 50 µl DMEM, 1% DMSO were made in polypropylene microtiter plates (Ratiolab, L6018123, Dreieich, Germany). Triton-X100 (1%, Sigma-Aldrich T-8787) and DMSO (10%, Sigma-Aldrich D-8418) were used as positive and negative controls, respectively. Polymyxin B (Sigma-Aldrich, p-1411) and polymyxin B nonapeptide (Sigma-Aldrich, p-2076) were used as reference lytic and non-lytic peptides. Then, 50 µL of RBCs was added to each well. The plate was sealed and incubated at 5% CO2 for one hour at 32 °C, after which the plate was centrifuged at 610× g for 5 min at room temperature. Next, 70 µL supernatant was removed and transferred to a flat-bottomed polystyrene microtiter plate (Costar, REF3779) and the OD405, as a measure of released hemoglobin, was determined using a microplate reader (Synergy H1 Multi-Mode Reader or Synergy HTX Multi-Mode Reader, BioTek). Percentage of hemolysis was calculated using the following equation: (2) % hemolysis=(absorbance test sample)-(absorbance diluent)/(absorbance positive control)-(absorbance diluent)

K. pneumoniae 94 = assay: MIC / checkerboard synergy assay; assay type: cell-based, Klebsiella pneumoniae; settings: compound alone; LB broth, MIC = 90% of growth prevented, OD600 over 12 h; mean ± SD
Experimental: as §1, §2

K. pneumoniae 821 = assay: MIC / checkerboard synergy assay; assay type: cell-based, Klebsiella pneumoniae; settings: compound alone; LB broth, MIC = 90% of growth prevented, OD600 over 12 h; mean ± SD
Experimental: as §1, §2

K. pneumoniae 613 = assay: MIC / checkerboard synergy assay; assay type: cell-based, Klebsiella pneumoniae; settings: compound alone; LB broth, MIC = 90% of growth prevented, OD600 over 12 h; mean ± SD
Experimental: as §1, §2

A. baumannii 2196 = assay: MIC / checkerboard synergy assay; assay type: cell-based, Acinetobacter baumannii; settings: compound alone; LB broth, MIC = 90% of growth prevented, OD600 over 12 h; mean ± SD
Experimental: as §1, §2

A. baumannii 1681 = assay: MIC / checkerboard synergy assay; assay type: cell-based, Acinetobacter baumannii; settings: compound alone; LB broth, MIC = 90% of growth prevented, OD600 over 12 h; mean ± SD
Experimental: as §1, §2

[1] = normal pooled human serum, 100 µM peptide from 10 mM DMSO stock, 37 °C, samples at 0, 15, 60 min, TCA precipitation, LC-MS TIC vs carbamazepine internal standard, triplicate; Figure 2C
Experimental: The stability measurements were performed in normal pooled human serum (PHS). The respective peptide was diluted to a final concentration of 100 μM in the aforementioned human serum (from 10 mM peptide stocks in DMSO). Then, 100 μM Carbamazepine was used as an internal standard; 60 μL of aforementioned peptide/Carbamazepine solution in PHS was incubated for 1h at 37 °C/750 rpm and 20 μL samples were taken after 0 min, 15 min and 60 min. Next, 1.5 μL of TCA was added to the sample to precipitate serum proteins. The samples were subsequently incubated on ice for 10 min and then centrifuged (12,000× g, 10 min). Then, 5 μL of supernatant was diluted in 20 μL of H2O/MeCN + 0.1% TFA. The sample was subsequently analyzed by LCMS on an Nucleodur C4-column (Macherey Nagel CC125/4 Nucleodur C4 Gravity, 5 µm) using a linear aqueous MeCN gradient containing FA (0.1%, v/v) and TFA (0.01%, v/v) as ion pair reagent (5–95%, 8 min). Peptides were quantified using the total ion count (TIC) of selected molecular ions. Remaining peptide quantities were calculated by normalizing the peptide peak areas using the internal standard peak areas and subsequently comparing the obtained value with the 0 min measurement. All measurements were performed in triplicate.

| Compound | MIC (compound alone) (A. baumannii 1757) [µM] | Log2FoldChange compared to vehicle injected (zebrafish larvae) | helicity (circular dichroism) [%] | hemolysis at 50 µM (sheep red blood cells) | MIC (compound alone) (K. pneumoniae 94) | MIC (compound alone) (K. pneumoniae 821) | MIC (compound alone) (K. pneumoniae 613) | MIC (compound alone) (A. baumannii 2196) | MIC (compound alone) (A. baumannii 1681) | MIC, + Rd-LPS (F583) (A. baumannii 1757) [µM] | MIC, + Sm-LPS (055:B5) (A. baumannii 1757) [µM] | MIC, No supplement (A. baumannii 1757) [µM] | hemolysis in the concentration range tested (in words) (sheep red blood cells; 0.5, 5 and 50 µM) | stability in human serum (in words) [1] | MIC, + Ra-LPS (EH100) (A. baumannii 1757; LB medium with soluble rough LPS 15 µg/ml) [µM] |
| --- | --- | --- | --- | --- | --- | --- | --- | --- | --- | --- | --- | --- | --- | --- | --- |
| CC(C)C[C@H](NC(=O)[C@H](Cc1c[nH]c2ccccc12)NC(=O)[C@H](CCCNC(=N)N)NC(=O)[C@H](CC(C)C)NC(=O)[C@]1(C)CCCC=CCCC[C@](C)(NC(=O)[C@H](CCCNC(=N)N)NC(=O)[C@@H](N)CCCNC(=N)N)C(=O)N[C@@H](Cc2ccccc2)C(=O)N[C@@H](CCCNC(=N)N)C(=O)N[C@@H](CCCNC(=N)N)C(=O)N1)C(N)=O [Peptide L6S1] (H-RR[S5]FRR[S5]LRWL-NH2; staple 3-7) | 1.80 ± 2.68 | 0.04 | 28 | significantly more hemolytic to the RBCs than the negative control | – | – | – | – | – | – | – | – | – | – | – |
| KRIVQRIKKWLR-NH2 [Peptide L8] | 2.53 ± 1.02 | -0.63 | 16 | – | 165,45±1,91 µM | 43,37±28,38 µM | 23,74±29,65 µM | 8,54±5,31 µM | 5,85±0,47 µM | 10.83 ± 8.12 | 0.53 ± 0.59 | 8.78 ± 11.15 | did not cause hemolysis | – | – |
| CC[C@H](C)[C@@H]1NC(=O)[C@H](CCCNC(=N)N)NC(=O)[C@H](CCC(N)=O)NC(=O)[C@](C)(NC(=O)[C@@H](NC(=O)[C@H](CCCNC(=N)N)NC(=O)[C@@H](N)CCCCN)[C@@H](C)CC)CCCCCCC=CCCC[C@@](C)(C(=O)N[C@@H](CCCNC(=N)N)C(N)=O)NC(=O)[C@H](Cc2c[nH]c3ccccc23)NC(=O)[C@H](CCCCN)NC(=O)[C@H](CCCCN)NC1=O [Peptide L8S3] (H-KRI[R8]QRIKKW[S5]R-NH2; staple 4-11) | 0.57 ± 0.23 | -0.08 | 25 | significantly more hemolytic to the RBCs than the negative control | – | – | – | – | – | – | – | – | – | highest stabilities | – |
| RRLFRRILRWL-NH2 [Peptide L6] | 1.1 ± 1.20 | -0.04 | 15 | up to 50% | 0,63±0,29 µM | 2,44±2,17 µM | 0,65±0,15 µM | 0,91±0,59 µM | 0,66±0,13 µM | 0.34 ± 0.40 | 9.85 ± 16.34 | 1.2 ± 0.43 | – | – | 2.50 ± 3.83 |
| CC(C)C[C@H](NC(=O)[C@H](Cc1c[nH]c2ccccc12)NC(=O)[C@H](CCCCN)NC(=O)[C@H](CCCCN)NC(=O)[C@]1(C)CCCC=CCCC[C@](C)(NC(=O)[C@H](CCCNC(=N)N)NC(=O)[C@@H](N)CCCCN)C(=O)N[C@@H](C(C)C)C(=O)N[C@@H](CCC(N)=O)C(=O)N[C@@H](CCCNC(=N)N)C(=O)N1)C(=O)N[C@@H](CCCNC(=N)N)C(N)=O [Peptide L8S1] (H-KR[S5]VQR[S5]KKWLR-NH2; staple 3-7) | 12.76 ± 8.91 | -0.45 | 49 | did not cause hemolysis | – | – | – | – | – | – | – | – | – | – | – |
| CC[C@H](C)[C@@H]1NC(=O)[C@H](CCCNC(=N)N)NC(=O)[C@H](CCCNC(=N)N)NC(=O)[C@](C)(NC(=O)[C@H](CC(C)C)NC(=O)[C@H](CCCNC(=N)N)NC(=O)[C@@H](N)CCCNC(=N)N)CCCCCCC=CCCC[C@@](C)(C(N)=O)NC(=O)[C@H](Cc2c[nH]c3ccccc23)NC(=O)[C@H](CCCNC(=N)N)NC(=O)[C@H](CC(C)C)NC1=O [Peptide L6S3] (H-RRL[R8]RRILRW[S5]-NH2; staple 4-11) | 1.47 ± 0.48 | -0.40 | 23 | did not cause hemolysis | – | – | – | – | – | – | – | – | – | – | – |
| CC[C@H](C)[C@H](NC(=O)[C@H](CCCNC(=N)N)NC(=O)[C@@H](N)CCCCN)C(=O)N[C@H](C(=O)N[C@@H](CCC(N)=O)C(=O)N[C@@H](CCCNC(=N)N)C(=O)N[C@@]1(C)CCCC=CCCC[C@@](C)(C(=O)N[C@@H](CCCNC(=N)N)C(N)=O)NC(=O)[C@H](Cc2c[nH]c3ccccc23)NC(=O)[C@H](CCCCN)NC(=O)[C@H](CCCCN)NC1=O)C(C)C [Peptide L8S2] (H-KRIVQR[S5]KKW[S5]R-NH2; staple 7-11) | 8.69 ± 4.29 | 0.11 | 25 | did not cause hemolysis | – | – | – | – | – | – | – | – | – | – | – |
| CC(C)C[C@H](NC(=O)[C@H](CCCNC(=N)N)NC(=O)[C@@H](N)CCCNC(=N)N)C(=O)N[C@@H](Cc1ccccc1)C(=O)N[C@@H](CCCNC(=N)N)C(=O)N[C@@H](CCCNC(=N)N)C(=O)N[C@@]1(C)CCCC=CCCC[C@@](C)(C(N)=O)NC(=O)[C@H](Cc2c[nH]c3ccccc23)NC(=O)[C@H](CCCNC(=N)N)NC(=O)[C@H](CC(C)C)NC1=O [Peptide L6S2] (H-RRLFRR[S5]LRW[S5]-NH2; staple 7-11) | 0.93 ± 0.69 | -1.21 | 19 | significantly more hemolytic to the RBCs than the negative control | – | – | – | – | – | – | – | – | – | highest stabilities | – |
